Tested on: Fibrosarcoma Meth A
Assay: Anti-tumor activity against Fibrosarcoma Meth A in mice (mean survival time, T/C)
Assay type: in vivo
Conditions: T/C x 100 of mean survival time (medicated vs control group); female BALB/c mice inoculated intrapleurally with 5 x 10^5 Meth A cells; compound injected into pleural cavity, 100 pg/0.05 ml/mouse three times (before 14 days, after 1 hour and after 3 days of tumor implantation)
Method: Groups of eight female BALB/c mice, aged 8-9 weeks and weighing 18.0-22.5 g were used.
Fibrosarcoma Meth A (hereinafter referred to as Meth A) was successively transferred every 7 days into BALB/c mice by intraperitoneal inoculation of the ascites cells thereof and the Meth A in the ascites cells as harvested 6 or 7 days after the inoculation was used as tumor cells.
Each of the BALB/c mice was inoculated intrapleurally with 5 x 10^5 Meth A cells in 0.1 ml Hanks solution.
Test compound was dissolved in phosphate buffer saline solution, and was injected into pleural cavity to each of the mice in doses of 100 pg/0.05 ml/mouse three times, i.e. before 14 days, after 1 hour and after 3 days of tumor implantation.
The control group was given with a vehicle alone in the same way.
The antitumor activity of the test compound was estimated by comparing mean survival time of the two groups. • T : Mean survival time of the medicated group • C : Mean survival time of the control group

SMILES	Anti-tumor activity *a (%)
CCCCCCCCCCCCCCCCCCO[C@@H]1[C@@H](OC)[C@@H](OC)O[C@@H]1COP(=O)([O-])OCC[N+](C)(C)C [Ex 4-(3), Methyl 2-0-methyl-3-0-octadecyl-a-D-xylofuranoside 5-(choline phosphate)]	408%
CCCCCCCCCCCCCCCCCCO[C@H]1[C@@H](O)[C@H](OC)O[C@@H]1COP(=O)([O-])OCC[N+](C)(C)C [Ex 6-(7), Methyl 3-O-octadecyl-β-D-ribofuranoside 5-(choline phosphate)]	383%
CCCCCCCCCCCCCCCCCCOCC(COP(=O)([O-])OCC[N+](C)(C)C)OC (racemic) [Control Compound, (rac)-1-O-Octadecyl-2-0-methyl-glycerol-3-phosphorylcholine, reference compound]	302.8%
